Data from patent publication US20250011330A1, “Imidazo[1,2- a]pyrazine and Imidazo[1,2- a]pyridine Based Tyrosyl-DNA Phosphodiesterase I (TDP1) Inhibitors” (The USA, As Represented by the Secretary, Department of …, priority 2021, published 2025).
Like-named read-outs stand apart in the source and are kept apart here.

Key:
[1] = biological target: TDP2 (Homo sapiens (Human), UniProt O95551); assay: gel-based TDP2 fluorescence assay in vitro; type: biochemical; details: read-out: TDP2 IC50
Protocol: (§1) (TDP assay buffer: 50 mM Tris HCl, pH 7.5, 80 mM KCl, 2 mM EDTA, 1 mM DTT, 40 μg/ml BSA and 0.01% Tween-20. TDP1 (20 mg/mL in 25 mM Tris-HCl pH 7.2, 150 mM NaCl, 2 mM tris(2-carboxyethyl)phosphine) with 2 mL of well solution composed of 0.1 M MOPS/HEPES pH 7.5, 10% (w/v) PEG 8000, 20% (v/v) ethylene glycol, 0.03 M sodium fluoride, 0.03 M sodium bromide, 0.03 M sodium iodide, 0.03 M sodium bromide and sealed over […] well solution. AF647 labelling buffer: Tris-HCl (pH 7.2, 25 mM), NaCl (150 mM), and tris(2-carboxyethyl)phosphine hydrochloride (TCEP, 2 mM).)
(§2) (DNA only: Buffer+DMSO. DMSO only: Enzyme+DMSO. Drug: Enzyme+Drug, 25° C., 10 min+DNA, reaction at 25° C., 15 min.)

[2] = system: human colon cancer cell line HCT116; assay: Synergistic effect with camptothecin (CPT) based on cell viability; details: for synergy with camptothecin: list in description; for Synergy Score: with camptothecin (CPT), HCT116, 72 h, SynergyFinder 2.0
Protocol: The synergistic effects of the TDP1 inhibitors with CPT were tested in human colon cancer cell line HCT116 based on cell viability (Table 3, FIGS. 2-5). Cells were first seeded in a 384-well black-clear plate until 30% confluency and then incubated with a serial dilution of CPT at the range of 0-100 nM in the present or the absence of TDP1 inhibitors for 72 h at 37° C. Viable cell numbers were counted from the brightfield images taken by Biotek Cytation 5 (FIGS. 2-3). Fractional affect (Fa) and combination index (Ci) were analyzed with CompuSyn software. Synergistic scores of each TDP1 inhibitors were calculated and collected based on the data analysis from SynergyFinder (FIG. 4). […]

[3] = biological target: TDP1 (Homo sapiens (Human), UniProt Q9NUW8); assay: TDP1 gel-based in vitro fluorescence assay; type: biochemical
Protocol: as §1, §2
Gel images were scanned using a Typhoon FLA 9500 scanner (GE Healthcare) and densitometric analyses were performed using the ImageQuant software (GE Healthcare). The IC50 of TDP1 inhibitors was calculated by comparing the percentage of cleavage product (5′Cy5-[…]-p-3′) to DMSO control.

[4] = Table 7, HPLC-purified oxime leads, read-out: TDP1 IC50
[5] = Table 7, ratio of IC50 TDP2 to TDP1
[6] = Table 7, HPLC-purified oxime leads
[7] = Table 1, imidazo[1,2-a]pyridin-3-amines, read-out: IC50
[8] = Table 10, PROTACs, read-out: TDP1 IC50

Sequence of TDP2 (O95551 whole entry, species assumed): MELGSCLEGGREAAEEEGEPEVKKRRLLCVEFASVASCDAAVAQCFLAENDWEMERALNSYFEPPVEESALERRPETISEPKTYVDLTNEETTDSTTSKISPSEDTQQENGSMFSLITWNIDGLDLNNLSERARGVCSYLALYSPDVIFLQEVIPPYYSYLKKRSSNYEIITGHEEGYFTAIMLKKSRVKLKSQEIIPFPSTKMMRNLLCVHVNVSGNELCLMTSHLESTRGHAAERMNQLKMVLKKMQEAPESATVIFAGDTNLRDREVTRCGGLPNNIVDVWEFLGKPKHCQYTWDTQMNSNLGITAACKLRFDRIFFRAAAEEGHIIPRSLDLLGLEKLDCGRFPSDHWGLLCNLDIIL
Sequence of TDP1 (Q9NUW8 whole entry): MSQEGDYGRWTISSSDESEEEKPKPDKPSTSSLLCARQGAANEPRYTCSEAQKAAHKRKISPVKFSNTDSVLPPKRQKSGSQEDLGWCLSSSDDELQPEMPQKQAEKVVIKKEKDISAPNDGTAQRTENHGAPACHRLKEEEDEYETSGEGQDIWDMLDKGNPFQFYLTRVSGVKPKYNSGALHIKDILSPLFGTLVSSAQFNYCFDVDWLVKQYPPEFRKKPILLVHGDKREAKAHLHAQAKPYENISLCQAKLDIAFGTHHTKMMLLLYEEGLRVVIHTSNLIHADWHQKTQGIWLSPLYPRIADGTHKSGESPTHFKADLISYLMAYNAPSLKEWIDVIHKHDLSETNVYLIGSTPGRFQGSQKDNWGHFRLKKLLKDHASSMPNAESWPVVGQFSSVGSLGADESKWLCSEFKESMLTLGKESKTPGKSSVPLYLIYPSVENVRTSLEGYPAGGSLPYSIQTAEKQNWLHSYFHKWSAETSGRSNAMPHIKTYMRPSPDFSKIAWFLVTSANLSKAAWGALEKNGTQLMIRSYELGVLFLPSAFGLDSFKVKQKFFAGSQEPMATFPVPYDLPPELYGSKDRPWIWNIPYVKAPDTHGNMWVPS

Row | SMILES | synergy with camptothecin [2] | Synergy Score [2] | IC50 [3, 8] | IC50 ([1]; Table 10, PROTACs) | also measured
1 | O=C(O)c1ccc(Nc2c(-c3ccccc3)nc3cc(C(=O)O)ccn23)cc1 [Compound 8s, 3-((4-Carboxyphenyl)amino)-2-phenylimidazo[1,2-a]pyridine-7-carboxylic acid] | exhibit synergy with camptothecin | 20.7 | – | – | IC50 ([1]; Table 3): > 100 µM
2 | O=C(O)c1ccc(Nc2c(-c3ccccc3)nc3ccccn23)cc1 [Compound 8a, 4-((2-Phenylimidazo[1,2-a]pyridin-3-yl)amino)benzoic acid] | – | −1.3 | – | – | IC50 ([1]; Table 3): > 100 µM
3 | N#Cc1ccc(-c2ccc(/C=N/OCc3ccc4nc(-c5ccccc5)c(Nc5ccc(C(=O)O)cc5)n4c3)cc2)nc1 [XZ706, (E)-4-((6-((((4-(5-cyanopyridin-2-yl)benzylidene)amino)oxy)methyl)-2-phenylimidazo[1,2-a]pyridin-3-yl)amino)benzoic acid] | exhibit synergy with camptothecin | – | – | – | IC50 [3, 4]: 17.4 ± 3.2 µM; FC (fold change) [3, 5]: 4; loss of TDP1 potency relative to 102 ([3]; fold loss versus 102): about 2 fold; IC50 [1, 6]: 62.1 ± 10.1 µM
4 | O=C(O)c1ccc(Nc2c(-c3ccccc3)nc3ccc(Br)cn23)cc1 [Compound 8o, 4-((6-Bromo-2-phenylimidazo[1,2-a]pyridin-3-yl)amino)benzoic acid] | exhibit synergy with camptothecin | – | – | – | IC50 [3, 7]: 1.6 µM
5 | O=C(O)c1ccc(Nc2c(-c3ccccc3O)nc3cnccn23)cc1 [Compound M7] | exhibit synergy with camptothecin | 15.6 | – | – | –
6 | CS(=O)(=O)c1ccc2nc(-c3ccccc3)c(Nc3ccc(C(=O)O)cc3)n2c1 [Compound 8q, 4-((6-(Methylsulfonyl)-2-phenylimidazo[1,2-a]pyridin-3-yl)amino)benzoic acid] | – | 9.5 | – | – | TDP1 Selectivity ([3]; ratio of IC50 values of TDP1/TDP2): 26
7 | O=C(O)c1ccc(Nc2c(-c3ccccc3)nc3ccc(C(=O)O)cn23)cc1 [Compound 8m, 3-((4-Carboxyphenyl)amino)-2-phenylimidazo[1,2-a]pyridine-6-carboxylic acid] | exhibit synergy with camptothecin | – | – | – | IC50 [3, 7]: 0.9 µM
8 | O=C(O)c1ccc(Nc2c(-c3ccccc3)nc3cnccn23)cc1 [Compound 7b, 4-((2-Phenylimidazo[1,2-a]pyrazin-3-yl)amino)benzoic acid] | – | 3 | – | – | IC50 ([1]; Table 3): > 100 µM
9 | Cc1ncsc1-c1ccc(CNC(=O)[C@@H]2C[C@@H](O)CN2C(=O)[C@@H](NC(=O)COCCOCCOCCn2cc(-c3ccn4c(Nc5ccc(C(=O)O)cc5)c(-c5ccccc5)nc4c3)nn2)C(C)(C)C)cc1 [XZ683, 4-((7-(1-((S)-13-((2S,4R)-4-Hydroxy-2-((4-(4-methylthiazol-5-yl)benzyl)carbamoyl)pyrrolidine-1-carbonyl)-14,14-dimethyl-11-oxo-3,6,9-trioxa-12-azapentadecyl)-1H-1,2,3-triazol-4-yl)-2-phenylimidazo[1,2-a]pyridin-3-yl)amino)benzoic acid] | – | – | > 100 µM | > 100 µM | –
10 | Cc1cncc(Oc2ccc(/C=N/OCc3ccc4nc(-c5ccccc5)c(Nc5ccc(C(=O)O)cc5)n4c3)cc2)n1 [XZ707, (E)-4-((6-((((4-((6-methylpyrazin-2-yl)oxy)benzylidene)amino)oxy)methyl)-2-phenylimidazo[1,2-a]pyridin-3-yl)amino)benzoic acid] | – | – | – | – | IC50 [3, 4]: > 100 µM; IC50 [1, 6]: > 100 µM
11 | N#Cc1ccc(-c2ccc(/C=N\OCc3ccc(-c4nc5cc(-c6ccccc6)ccn5c4Nc4ccc(C(=O)O)cc4)cc3)cc2)nc1 [XZ708, (Z)-4-((2-(4-((((4-(5-Cyanopyridin-2-yl)benzylidene)amino)oxy)methyl)phenyl)-7-phenylimidazo[1,2-a]pyridin-3-yl)amino)benzoic acid] | exhibit synergy with camptothecin | – | – | – | FC (fold change) [3, 5]: >18; IC50 [1, 6]: > 100 µM
12 | O=C1CCC(N2C(=O)c3cccc(NCCCCCCNCc4ccc(-c5nc6cc(-c7ccccc7)ccn6c5Nc5ccc(C(=O)O)cc5)cc4)c3C2=O)C(=O)N1 (centres unmarked) [XZ742, 4-((2-(4-(((6-((2-(2,6-Dioxopiperidin-3-yl)-1,3-dioxoisoindolin-4-yl)amino)hexyl)amino)methyl)phenyl)-7-phenylimidazo[1,2-a]pyridin-3-yl)amino)benzoic acid] | – | – | > 100 µM | > 100 µM | –
13 | N#Cc1ccc(-c2ccc(Cn3cc(COc4ccc(-c5nc6ccccn6c5Nc5ccc(C(=O)O)cc5)cc4)nn3)cc2)nc1 [XZ721, 4-((2-(4-((1-(4-(5-Cyanopyridin-2-yl)benzyl)-1H-1,2,3-triazol-4-yl)methoxy)phenyl)imidazo[1,2-a]pyridin-3-yl)amino)benzoic acid] | – | – | – | – | IC50 ([3]; Table 8, lead compounds with different linkers, read-out: TDP1 IC50): 60 ± 17 µM; FC (fold change) ([3]; Table 8, ratio of IC50 TDP2 to TDP1): >1; IC50 ([1]; Table 8, lead compounds with different linkers): > 100 µM
14 | CS(=O)(=O)c1ccc2nc(-c3ccccc3)c(Nc3ccc([N+](=O)[O-])cc3)n2c1 [Compound 6u, 6-(Methylsulfonyl)-N-(4-nitrophenyl)-2-phenylimidazo[1,2-a]pyridin-3-amine] | exhibit synergy with camptothecin | – | – | – | IC50 [3, 7]: 16.1 µM
15 | O=C(COc1cccc2c1C(=O)N(C1CCC(=O)NC1=O)C2=O)NCCCCn1cc(-c2ccn3c(Nc4ccc(C(=O)O)cc4)c(-c4ccccc4)nc3c2)nn1 (centres unmarked) [XZ685, 4-((7-(1-(4-(2-((2-(2,6-dioxopiperidin-3-yl)-1,3-dioxoisoindolin-4-yl)oxy)acetamido)butyl)-1H-1,2,3-triazol-4-yl)-2-phenylimidazo[1,2-a]pyridin-3-yl)amino)benzoic acid] | – | – | > 100 µM | > 100 µM | –
16 | Cc1cncc(Oc2ccc(/C=N\OCc3ccc(-c4nc5cc(-c6ccccc6)ccn5c4Nc4ccc(C(=O)O)cc4)cc3)cc2)n1 [XZ711, (Z)-4-((2-(4-((((4-((6-methylpyrazin-2-yl)oxy)benzylidene)amino)oxy)methyl)phenyl)-7-phenylimidazo[1,2-a]pyridin-3-yl)amino)benzoic acid] | – | – | – | – | FC (fold change) [3, 5]: >2; IC50 [1, 6]: > 100 µM
17 | O=C(O)c1ccc(Nc2c(-c3ccccc3)nc3ccccn23)cc1C(=O)O [Compound 10b, 4-((2-Phenylimidazo[1,2-a]pyridin-3-yl)amino)phthalic acid] | exhibit synergy with camptothecin | 17.9 | – | – | IC50 ([1]; Table 3): > 100 µM
18 | O=C(COc1cccc2c1C(=O)N(C1CCC(=O)NC1=O)C2=O)NCCCCn1cc(-c2ccc(-c3nc4ccccn4c3Nc3ccc(C(=O)O)cc3)cc2)nn1 (centres unmarked) [XZ689, 4-((2-(4-(1-(4-(2-((2-(2,6-dioxopiperidin-3-yl)-1,3-dioxoisoindolin-4-yl)oxy)acetamido)butyl)-1H-1,2,3-triazol-4-yl)phenyl)imidazo[1,2-a]pyridin-3-yl)amino)benzoic acid] | – | – | > 100 µM | > 100 µM | –
19 | Cc1ncsc1-c1ccc(CNC(=O)[C@@H]2C[C@@H](O)CN2C(=O)[C@@H](NC(=O)COCCOCCOCCn2cc(COc3ccc(-c4nc5cc(-c6ccccc6)ccn5c4Nc4ccc(C(=O)O)cc4)cc3)nn2)C(C)(C)C)cc1 [XZ680, 4-((2-(4-((1-((S)-13-((2S,4R)-4-hydroxy-2-((4-(4-methylthiazol-5-yl)benzyl)carbamoyl)pyrrolidine-1-carbonyl)-14,14-dimethyl-11-oxo-3,6,9-trioxa-12-azapentadecyl)-1H-1,2,3-triazol-4-yl)methoxy)phenyl)-7-phenylimidazo[1,2-a]pyridin-3-yl)amino)benzoic acid] | – | – | > 100 µM | > 100 µM | –
20 | O=C(COc1cccc2c1C(=O)N(C1CCC(=O)NC1=O)C2=O)NCCCCn1cc(COc2ccc(-c3nc4ccccn4c3Nc3ccc(C(=O)O)cc3)cc2)nn1 (centres unmarked) [XZ688, 4-((2-(4-((1-(4-(2-((2-(2,6-Dioxopiperidin-3-yl)-1,3-dioxoisoindolin-4-yl)oxy)acetamido)butyl)-1H-1,2,3-triazol-4-yl)methoxy)phenyl)imidazo[1,2-a]pyridin-3-yl)amino)benzoic acid] | – | – | > 100 µM | > 100 µM | –
